Earlier results in patent publication US7888378B2, “Thiadiazole compounds and uses thereof” (Mallinckrodt Inc., priority 2006, dated 2011).

System: tumors
Details: after administering the substance

NCC(=O)CCC(=O)O [delta-aminolevulinic acid]
uptake of porphyrins in tumors compared to normal tissues: two-fold
